For the test, the target named is human RIP1 kinase domain (2-375) (Homo sapiens (Human), UniProt Q13546). Nature of the test: biochemical. Format: biochemical. To be noted: 50 uM ATP. The gist of the method:
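Ki^app comes from Morrison tight-binding fits of fractional activity versus compound concentration. Activity was read as ADP production, via tracer displacement lowering fluorescence polarization (633 nm laser). Conditions: 2 h, 50 nM insect-cell-expressed enzyme, 50 uM ATP, 30 mM MgCl2, 1 mM DTT, 0.5% DMSO, pH 7.5 Hepes.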

Setting [1] is: tight-binding apparent inhibition constant, human RIP1 kinase domain (2-375) 50 nM, 2 hours, read-out: Ki.
The mark [2] stands for this setting: human RIP1 kinase domain (2-375), 2 hours incubation, Transcreener ADP assay, read-out: RIP1 Ki.
[3] abbreviates: human RIP1 kinase domain (2-375), Transcreener ADP assay, 2 hours incubation, read-out: RIP1 Ki.
Setting [4] is: Table 5, apparent Ki (Morrison tight-binding fit), 50 nM RIP1 kinase domain, 2 hours incubation, read-out: Ki.
The mark [5] stands for this setting: Table 1, apparent Ki (Morrison tight-binding fit), 50 nM RIP1 kinase domain, 2 hours incubation, read-out: RIP1 Ki.

Like-named read-outs stand apart in the source and are kept apart here. Some results are limits rather than exact numbers.

The text below walks through data of patent publication US10988459B2 (priority 2015, dated 2021).

Chain of human RIP1 kinase domain (2-375) (Q13546 2-375): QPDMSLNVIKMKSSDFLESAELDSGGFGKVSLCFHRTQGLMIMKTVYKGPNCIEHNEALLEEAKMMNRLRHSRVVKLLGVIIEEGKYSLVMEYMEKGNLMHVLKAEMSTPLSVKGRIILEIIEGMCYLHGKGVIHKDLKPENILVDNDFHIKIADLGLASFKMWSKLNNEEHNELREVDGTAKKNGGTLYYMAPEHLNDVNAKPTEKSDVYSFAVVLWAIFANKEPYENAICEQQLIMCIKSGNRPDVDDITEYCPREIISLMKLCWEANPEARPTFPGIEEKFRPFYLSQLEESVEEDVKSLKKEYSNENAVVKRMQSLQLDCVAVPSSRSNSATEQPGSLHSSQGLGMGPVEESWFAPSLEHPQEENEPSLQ

Turning to `Cc1cc2n(n1)CC[C@H](NC(=O)c1ncn(CC3CCCO3)n1)C(=O)N2C` (stereo partly drawn) [Example 474, N-(6S)-2,4-dimethyl-5-oxo-7,8-dihydro-6H-pyrazolo[1,5-a][1,3]diazepin-6-yl-1-(tetrahydrofuran-2-ylmethyl)-1,2,4-triazole-3-carboxamide], under setting [1], the Ki came to 1300 nM. Take `CN1C(=O)C(NC(=O)c2nnc(Cc3ccccc3)[nH]2)CCn2ccnc21` (stereo not shown) [Example 175, 5-benzyl-N-(9-methyl-8-oxo-6,7,8,9-tetrahydro-5H-imidazo[1,2-a][1,3]diazepin-7-yl)-4H-1,2,4-triazole-3-carboxamide]: the Ki under setting [2] came to 212 nM.

`CN1C(=O)[C@H](NC(=O)c2ncn(Cc3ccc(F)c(F)c3)n2)CCn2nc([C@H]3CC3(F)F)cc21` [Example 314, 1-(3,4-difluorobenzyl)-N—((R)-2-((R)-2,2-difluorocyclopropyl)-4-methyl-5-oxo-5,6,7,8-tetrahydro-4H-pyrazolo[1,5-a][1,3]diazepin-6-yl)-1H-1,2,4-triazole-3-carboxamide]: the Ki under setting [3] stood at 43.5 nM. Still for that read-out and setting: to `CC(C)c1ccc2[nH]nc(C(=O)N[C@H]3COc4ccccc4N(C)C3=O)c2c1` [Example 228, (S)-5-isopropyl-N-(5-methyl-4-oxo-2,3,4,5-tetrahydrobenzo[b][1,4]oxazepin-3-yl)-1H-indazole-3-carboxamide] belongs 5 nM. Turning to `CN1C(=O)C(NC(=O)c2ncn(Cc3ccccc3)n2)CCn2nc(C(F)(F)F)cc21` (stereo not shown) [Example 85, 1-benzyl-N-(4-methyl-5-oxo-2-(trifluoromethyl)-5,6,7,8-tetrahydro-4H-pyrazolo[1,5-a][1,3]diazepin-6-yl)-1H-1,2,4-triazole-3-carboxamide], under setting [2], the Ki was found to be 76.8 nM. On to `CN1C(=O)[C@@H](NC(=O)c2n[nH]c3c2CC(C)(c2ccccc2)OC3)COc2ccccc21` (stereo partly drawn) [Example 212, 5-methyl-N—((S)-5-methyl-4-oxo-2,3,4,5-tetrahydrobenzo[b][1,4]oxazepin-3-yl)-5-phenyl-1,4,5,7-tetrahydropyrano[3,4-c]pyrazole-3-carboxamide], for which, under setting [2], the Ki worked out at 573 nM.

For the molecule `CN1C(=O)[C@@H](NC(=O)c2cc3c(cn2)cnn3CCC(F)F)COc2ccccc21` [Example 711, 1-(3,3-difluoropropyl)-N-[(3S)-5-methyl-4-oxo-2,3-dihydro-1,5-benzoxazepin-3-yl]pyrazolo[4,3-c]pyridine-6-carboxamide], the Ki under setting [4] was 73 nM. For the molecule `CN1C(=O)[C@@H](NC(=O)c2ncn(C[C@H]3C[C@@H](C(F)(F)F)C3)n2)CCn2nccc21` [Example 493], under setting [1], the Ki amounted to 92 nM. For `CN1C(=O)C(NC(=O)c2ncn(Cc3ccccc3)n2)CCn2nc(CN3CCC(F)(F)C3)cc21` (single isomer, unassigned) [Example 719, 1-benzyl-N-[2-[(3,3-difluoropyrrplidin-1-yl)methyl]-4-methyl-5-oxo-7,8-dihydro-6H-pyrazolo[1,5-a][1,3]diazepin-6-yl]-1,2,4-triazole-3-carboxamide], under setting [4], the Ki turned out to be 214 nM. Take `Cc1cc2n(n1)CCC(NC(=O)c1ncn(CC3CCC(F)(F)CC3)n1)C(=O)N2C` (stereo not shown) [Example 246, 1-((4,4-difluorocyclohexyl)methyl)-N-(2,4-dimethyl-5-oxo-5,6,7,8-tetrahydro-4H-pyrazolo[1,5-a][1,3]diazepin-6-yl)-1H-1,2,4-triazole-3-carboxamide]: the Ki under setting [3] was 695 nM. On to `CN1C(=O)C(NC(=O)c2ncn(Cc3ccccc3)n2)CCn2nc(CN3CC(F)C3)cc21` (single isomer, unassigned) [Example 450, 1-benzyl-N-(2-((3-fluoroazetidin-1-yl)methyl)-4-methyl-5-oxo-5,6,7,8-tetrahydro-4H-pyrazolo[1,5-a][1,3]diazepin-6-yl)-1H-1,2,4-triazole-3-carboxamide], for which the Ki under setting [1] amounted to 355 nM. Regarding `CN1C(=O)[C@@H](NC(=O)c2n[nH]c3c2CCCCC3)COc2ccccc21` [Example 44, (S)-N-(5-methyl-4-oxo-2,3,4,5-tetrahydrobenzo[b][1,4]oxazepin-3-yl)-1,4,5,6,7,8-hexahydrocyclohepta[c]pyrazole-3-carboxamide], the Ki under setting [5] came to 3000 nM. As to `CN1C(=O)[C@@H](NC(=O)c2ncn(Cc3ccccc3F)n2)CCn2nc(CCN3CC(F)(F)C3)cc21` [Example 773, 1-[(2-fluorophenyl)methyl]-N-[(6S)-2-[2-(3,3-difluoroazetidin-1-yl)ethyl]-4-methyl-5-oxo-7,8-dihydro-6H-pyrazolo[1,5-a][1,3]diazepin-6-yl]-1,2,4-triazole-3-carboxamide], the Ki under setting [4] was found to be 189 nM.

Regarding `CC[C@]1(C)OCc2cnc(C(=O)N[C@H]3CCn4nc([C@H]5CC5(F)F)cc4N(C)C3=O)cc21` [Example 319, (S)—N—((S)-2-((R)-2,2-difluorocyclopropyl)-4-methyl-5-oxo-5,6,7,8-tetrahydro-4H-pyrazolo[1,5-a][1,3]diazepin-6-yl)-1-ethyl-1-methyl-1,3-dihydrofuro[3,4-c]pyridine-6-carboxamide], the Ki under setting [3] is over 10000 nM. For `CC[C@@]1(C)OCc2cnc(C(=O)N[C@@H]3CCn4nc([C@H]5CC5(F)F)cc4N(C)C3=O)cc21` [Example 324, (R)—N—((R)-2-((R)-2,2-difluorocyclopropyl)-4-methyl-5-oxo-5,6,7,8-tetrahydro-4H-pyrazolo[1,5-a][1,3]diazepin-6-yl)-1-ethyl-1-methyl-1,3-dihydrofuro[3,4-c]pyridine-6-carboxamide], the Ki under setting [3] came out at 1290 nM. As to `COc1ccccc1Cn1cnc(C(=O)N[C@H]2CCn3nc(C)cc3N(C)C2=O)n1` [Example 589, 1-[(2-methoxyphenyl)methyl]-N-(6S)-2,4-dimethyl-5-oxo-7,8-dihydro-6H-pyrazolo[1,5-a][1,3]diazepin-6-yl-1,2,4-triazole-3-carboxamide], under setting [1], the Ki stood at 48 nM. For `CN1C(=O)[C@@H](NC(=O)c2nc3n(n2)[C@@H](C(F)(F)F)CCC3)COc2ccccc21` (single isomer, unassigned) [Example 425], under setting [1], the Ki came to 471 nM. Consider `CN1C(=O)C(NC(=O)c2cc3c(cn2)cnn3[C@H]2CCOC2)COc2ccccc21` (stereo partly drawn) [Example 156, N-(5-methyl-4-oxo-2,3,4,5-tetrahydrobenzo[b][1,4]oxazepin-3-yl)-1-((S)-tetrahydrofuran-3-yl)-1H-pyrazolo[4,3-c]pyridine-6-carboxamide], for which the Ki under setting [2] turned out to be 68.3 nM. Regarding `CN1C(=O)[C@@H](NC(=O)c2ncn(Cc3ccc(F)c(F)c3)n2)CCn2nccc21` (racemic) [Example 341, 1-[(3,4-difluorophenyl)methyl]-N-[rac-(6S)-4-methyl-5-oxo-7,8-dihydro-6H-pyrazolo[1,5-a][1,3]diazepin-6-yl]-1,2,4-triazole-3-carboxamide], the Ki under setting [1] was 17 nM.

Take `Cc1cc2n(n1)CC[C@H](NC(=O)c1ncn(Cc3ccccn3)n1)C(=O)N2C` [Example 651, 1-(2-pyridylmethyl)-N-(6S)-2,4-dimethyl-5-oxo-7,8-dihydro-6H-pyrazolo[1,5-a][1,3]diazepin-6-yl-1,2,4-triazole-3-carboxamide]: the Ki under setting [1] came out at 290 nM. As to `CN1C(=O)C(NC(=O)c2nnc(Cc3ccccc3)[nH]2)CCn2nc(C3CC3)cc21` (stereo not shown) [Example 29, 5-benzyl-N-(2-cyclopropyl-4-methyl-5-oxo-7,8-dihydro-6H-pyrazolo[1,5-a][1,3]diazepin-6-yl)-4H-1,2,4-triazole-3-carboxamide], the Ki under setting [5] came to 117 nM. Take `O=C(N[C@H]1COc2cc(F)cc(F)c2NC1=O)c1nc2n(n1)CCC2c1ccccc1` (stereo in doubt) [Example 625, (7S)-7-phenyl-N-[(3S)-6,8-difluoro-4-oxo-3,5-dihydro-2H-1,5-benzoxazepin-3-yl]-6,7-dihydro-5H-pyrrolo[1,2-b][1,2,4]triazole-2-carboxamide]: the Ki under setting [1] turned out to be 450 nM. With `O=C(N[C@H]1COc2cc(F)cc(F)c2NC1=O)c1nc2n(n1)CCC2c1ccccc1` (stereo in doubt) [Example 626, (7R)-7-phenyl-N-[(3S)-6,8-difluoro-4-oxo-3,5-dihydro-2H-1,5-benzoxazepin-3-yl]-6,7-dihydro-5H-pyrrolo[1,2-b][1,2,4]triazole-2-carboxamide], the Ki under setting [1] is 14 nM. For `CN1C(=O)[C@@H](NC(=O)c2n[nH]c3c2C2CC2CC3)COc2ccccc21` (stereo partly drawn) [Example 59, N-((S)-5-methyl-4-oxo-2,3,4,5-tetrahydrobenzo[b][1,4]oxazepin-3-yl)-3,4,5,5a,6,6a-hexahydrocyclopropa[e]indazole-1-carboxamide], the Ki under setting [5] is 1700 nM.

In the case of `O=C(N[C@H]1CCc2cc(F)cc(F)c2NC1=O)c1nc2n(n1)[C@H](c1ccccc1)CC2` (single isomer, unassigned) [Example 612], the Ki under setting [1] amounted to 71 nM. With `CN1C(=O)[C@@H](NC(=O)c2nnn3c2CC2(CCCC2)C3)COc2ccccc21` [Example 118, (S)—N-(5-methyl-4-oxo-2,3,4,5-tetrahydrobenzo[b][1,4]oxazepin-3-yl)-4′H,6′H-spiro[cyclopentane-1,5′-pyrrolo[1,2-c][1,2,3]triazole]-3′-carboxamide], under setting [2], the Ki came out at 50.4 nM. Take `CN1C(=O)C(NC(=O)c2ncn(CC3CC3)n2)CCn2nc(C3CC3)cc21` (stereo not shown) [Example 260, N-(2-cyclopropyl-4-methyl-5-oxo-5,6,7,8-tetrahydro-4H-pyrazolo[1,5-a][1,3]diazepin-6-yl)-1-(cyclopropylmethyl)-1H-1,2,4-triazole-3-carboxamide]: the Ki under setting [3] was found to be 1900 nM.

On to `CCC[C@@H]1CCCc2nc(C(=O)N[C@H]3COc4cc(F)cc(F)c4NC3=O)nn21` (single isomer, unassigned) [Example 716], for which the Ki under setting [4] came to 3 nM.
